Laboratory results published in the NIST ThermoML archive (doi:10.1021/je049610v).
“And” between values parts separate entries of the source, which are not always exact repeats. Identical values can stand only once.

Assays:
[1] = 101 kPa, Liquid
[2] = refractive index (Na D-line) (dimensionless); details: 101.33 kPa, Liquid
[3] = xn = mol fraction of the nth substance listed; details: 101 kPa, Liquid
[4] = refractive index (Na D-line) (dimensionless); xn = mol fraction of the nth substance listed; details: 101 kPa, Liquid

CCOC(=O)C(=O)OCC [diethyl ethanedioate]
Details | mass density, 298.15 K [kg/m3] | mass density, 303.15 K [kg/m3] | mass density, 308.15 K [kg/m3] | refractive index, 298.15 K | refractive index, 303.15 K | refractive index, 308.15 K | speed of sound, 298.15 K [m/s] | viscosity, 298.15 K [mPa·s] | viscosity, 303.15 K [mPa·s] | viscosity, 308.15 K [mPa·s]
[1] | 1072.3 | 1066.6 | 1060.7 | – | – | – | 1267 | 1.844 | 1.659 | 1.508
[2] | – | – | – | 1.4084 | 1.4061 | 1.4039 | – | – | – | –

ClC(Cl)C(Cl)Cl [1,1,2,2-tetrachloroethane]
Details | mass density, 298.15 K [kg/m3] | mass density, 303.15 K [kg/m3] | mass density, 308.15 K [kg/m3] | refractive index, 298.15 K | refractive index, 303.15 K | refractive index, 308.15 K | speed of sound, 298.15 K [m/s] | viscosity, 298.15 K [mPa·s] | viscosity, 303.15 K [mPa·s] | viscosity, 308.15 K [mPa·s]
[1] | 1587.8 | 1580.6 | 1573.3 | – | – | – | 1153 | 1.591 | 1.471 | 1.361
[2] | – | – | – | 1.4922 | 1.4894 | 1.4865 | – | – | – | –

COc1ccccc1 [anisole]
Details | mass density, 298.15 K [kg/m3] | mass density, 303.15 K [kg/m3] | mass density, 308.15 K [kg/m3] | refractive index, 298.15 K | refractive index, 303.15 K | refractive index, 308.15 K | speed of sound, 298.15 K [m/s] | viscosity, 298.15 K [mPa·s] | viscosity, 303.15 K | viscosity, 308.15 K [mPa·s]
[1] | 988.9 | 984.1 | 979.4 | – | – | – | 1410 | 0.992 | 0.919 mPa·s and 0.918 mPa·s | 0.853
[2] | – | – | – | 1.5148 | 1.5124 | 1.5092 | – | – | – | –

C[S+](C)[O-] [dimethyl sulfoxide]
Details | mass density, 298.15 K [kg/m3] | mass density, 303.15 K [kg/m3] | mass density, 308.15 K [kg/m3] | refractive index, 298.15 K | speed of sound, 298.15 K [m/s] | viscosity, 298.15 K [mPa·s] | viscosity, 303.15 K [mPa·s] | viscosity, 308.15 K [mPa·s]
[1] | 1095.4 | 1090.8 | 1086.2 | – | 1493 | 1.984 | 1.801 | 1.651
[2] | – | – | – | 1.4768 | – | – | – | –

ClC(Cl)=C(Cl)Cl [tetrachloroethene]
Details | mass density, 298.15 K [kg/m3] | mass density, 303.15 K [kg/m3] | mass density, 308.15 K [kg/m3] | refractive index, 298.15 K | refractive index, 303.15 K | refractive index, 308.15 K | speed of sound, 298.15 K [m/s] | viscosity, 298.15 K [mPa·s] | viscosity, 303.15 K [mPa·s] | viscosity, 308.15 K [mPa·s]
[1] | 1614.7 | 1606.9 | 1599 | – | – | – | 1038 | 0.861 | 0.817 | 0.782
[2] | – | – | – | 1.5036 | 1.501 | 1.498 | – | – | – | –

C1COCCO1 [1,4-dioxane]
Details | mass density, 298.15 K [kg/m3] | mass density, 303.15 K [kg/m3] | mass density, 308.15 K [kg/m3] | refractive index, 298.15 K | refractive index, 303.15 K | refractive index, 308.15 K | speed of sound, 298.15 K [m/s] | viscosity, 298.15 K [mPa·s] | viscosity, 303.15 K [mPa·s] | viscosity, 308.15 K [mPa·s]
[1] | 1028.3 | 1023.1 | 1017.8 | – | – | – | 1345 | 1.415 | 1.171 | 1.068
[2] | – | – | – | 1.4181 | 1.4176 | 1.4141 | – | – | – | –

CN(C)C=O [dimethylformamide]
Details | mass density, 298.15 K [kg/m3] | mass density, 303.15 K [kg/m3] | mass density, 308.15 K [kg/m3] | refractive index, 298.15 K | refractive index, 303.15 K | refractive index, 308.15 K | speed of sound, 298.15 K [m/s] | viscosity, 298.15 K [mPa·s] | viscosity, 303.15 K [mPa·s] | viscosity, 308.15 K [mPa·s]
[1] | 943.9 | 939.5 | 935 | – | – | – | 1462 | 0.801 | 0.754 | 0.711
[2] | – | – | – | 1.4288 | 1.4264 | 1.4238 | – | – | – | –

OCCCl [1-chloro-2-hydroxyethane]
Details | mass density, 298.15 K [kg/m3] | mass density, 303.15 K [kg/m3] | mass density, 308.15 K [kg/m3] | refractive index, 298.15 K | refractive index, 303.15 K | refractive index, 308.15 K | speed of sound, 298.15 K [m/s] | viscosity, 298.15 K [mPa·s] | viscosity, 303.15 K [mPa·s] | viscosity, 308.15 K [mPa·s]
[1] | 1200.9 | 1192.5 | 1187.1 | – | – | – | 1358 | 3.104 | 2.669 | 2.347
[2] | – | – | – | 1.4411 | 1.438 | 1.4326 | – | – | – | –

ClC(Cl)=C(Cl)Cl [tetrachloroethene] + COc1ccccc1
Details | mass density, 298.15 K [kg/m3] | mass density, 303.15 K [kg/m3] | mass density, 308.15 K [kg/m3] | refractive index, 298.15 K | refractive index, 303.15 K | refractive index, 308.15 K | speed of sound, 298.15 K [m/s] | viscosity, 298.15 K [mPa·s] | viscosity, 303.15 K [mPa·s] | viscosity, 308.15 K [mPa·s]
[3], x2 = 0 | 1614.7 | 1606.9 | 1599 | – | – | – | 1038 | 0.861 | 0.817 | 0.782
[3], x2 = 0.0979 | 1548.6 | 1540.9 | 1533.6 | – | – | – | 1065 | 0.859 | 0.818 | 0.776
[3], x2 = 0.1962 | 1483.4 | 1476.1 | 1469 | – | – | – | 1094 | 0.854 | 0.813 | 0.77
[3], x2 = 0.3035 | 1413.9 | 1407 | 1400.4 | – | – | – | 1127 | 0.854 | 0.811 | 0.767
[3], x2 = 0.4024 | 1350.9 | 1343.5 | 1337.9 | – | – | – | 1159 | 0.861 | 0.815 | 0.77
[3], x2 = 0.5044 | 1286.9 | 1280.5 | 1274.6 | – | – | – | 1195 | 0.874 | 0.825 | 0.776
[3], x2 = 0.6045 | 1225.3 | 1219.3 | 1213.5 | – | – | – | 1232 | 0.892 | 0.839 | 0.787
[3], x2 = 0.7033 | 1165.1 | 1159.6 | 1154.1 | – | – | – | 1271 | 0.909 | 0.855 | 0.799
[3], x2 = 0.8036 | 1105 | 1099.6 | 1094.5 | – | – | – | 1314 | 0.935 | 0.877 | 0.817
[3], x2 = 0.8974 | 1049.2 | 1044.8 | 1039.2 | – | – | – | 1359 | 0.961 | 0.898 | 0.835
[4], x2 = 0 | – | – | – | 1.5036 | 1.501 | 1.498 | – | – | – | –
[4], x2 = 0.0979 | – | – | – | 1.5044 | 1.5015 | 1.4986 | – | – | – | –
[4], x2 = 0.1962 | – | – | – | 1.5053 | 1.5023 | 1.4993 | – | – | – | –
[4], x2 = 0.3035 | – | – | – | 1.5065 | 1.5034 | 1.5004 | – | – | – | –
[4], x2 = 0.4024 | – | – | – | 1.5075 | 1.5044 | 1.5014 | – | – | – | –
[4], x2 = 0.5044 | – | – | – | 1.5086 | 1.5056 | 1.5026 | – | – | – | –
[4], x2 = 0.6045 | – | – | – | 1.5099 | 1.5069 | 1.504 | – | – | – | –
[4], x2 = 0.7033 | – | – | – | 1.5111 | 1.5083 | 1.5054 | – | – | – | –
[4], x2 = 0.8036 | – | – | – | 1.5124 | 1.5096 | 1.5068 | – | – | – | –
[4], x2 = 0.8974 | – | – | – | 1.5135 | 1.5101 | 1.508 | – | – | – | –
